pIC50: −log10 of the molar value.
Tests used:
[1] = target: T1, JMJD3 (Homo sapiens, UniProt O15054); assay: JMJD3 in vitro enzyme inhibition assay (AlphaScreen); type: biochemical; details: Table 5; 1 nM JMJD3, H3K27me3-biotin labeled peptide
T1 construct: purchased BPS Bioscience 50115
Excerpt: This assay determines the ability of a test compound to inhibit Jarid1B, JMJD2C and JMJD3 demethylase activity. Baculovirus expressed Jarid1B (GenBank Accession #NM-006618, AA 2-751) was purchased from BPS Bioscience (Cat #50121) or custom made by MolecularThroughput. Baculovirus expressed JMJD2C (GenBank Accession #BC143571, AA 2-372) was purchased from BPS Bioscience (Cat#50105). Baculovirus expressed JMJD3 (GenBank Accession #NM-001080424, AA1043-end) was purchased from BPS Bioscience (Cat#50115).
The ability of test compounds to inhibit the activity of JMJD3 was determined in 384-well plate format under the following reaction conditions: 1 nM JMJD3, 250 nM H3K27me3-biotin labeled peptide (Anaspec cat # 64367), 1 µM alpha-ketoglutaric acid in assay buffer of 50 mM HEPES, pH7.3, 0.005% Brij35, 0.5 mM TCEP, 0.2 mg/ml BSA, 50 µM sodium L-ascorbate, 5 µM ammonium iron(II) sulfate. Reaction product is determined quantitatively by AlphaScreen detection after the addition of detection reagents anti-H3K27me1 antibody, 5 µg/ml AlphaScreen® Streptavidin-coated Donor beads, and 5 µg/ml AlphaScreen® Protein A Acceptor beads in 50 mM HEPES, pH7.3, 10 mM NaCl, 0.005% Brij35, 10 mM EDTA, 2 mg/ml BSA.
The assay reaction was initiated by the following: 3 µl of the mixture of 750 nM H3K27me3-biotin labeled peptide and 3 µM alpha-ketoglutaric acid with 3 µl of 11-point serial diluted inhibitor in 3% DMSO are added to each well of 384 well Proxiplate (Perkin Elmer), followed by the addition of 3 µl of 3 nM JMJD3 to initiate the reaction. The reaction mixture is incubated at room temperature for 20 minutes, and terminated by the addition of 3 µl of appropriate dilution of anti H3K27me1 antibody in 50 mM HEPES, pH7.3, 10 mM NaCl, 0.005% Brij35, 10 mM EDTA, 2 mg/ml BSA. Plates will then incubated at room temperature for 1 hour, followed by addition of 3 µl of 25 µg/ml AlphaScreen® Streptavidin-coated Donor beads and AlphaScreen® Protein A Acceptor beads in 50 mM HEPES, pH7.3, 10 mM NaCl, 0.005% Brij35, 10 mM EDTA, 2 mg/ml BSA. Plates will then be read by EnVision Multilabel Reader in AlphaScreen mode after minimum 2 hour incubation at room temperature. The AlphaScreen signal for each well is used to determine inhibition constant (IC50).

[2] = target: T2, FBXL10 (Homo sapiens, UniProt Q8NHM5); assay: FBXL10 in vitro enzyme inhibition assay (AlphaScreen); type: biochemical
T2 construct: purchased BPS Bioscience 50120
T2 sequence (Q8NHM5 1-650): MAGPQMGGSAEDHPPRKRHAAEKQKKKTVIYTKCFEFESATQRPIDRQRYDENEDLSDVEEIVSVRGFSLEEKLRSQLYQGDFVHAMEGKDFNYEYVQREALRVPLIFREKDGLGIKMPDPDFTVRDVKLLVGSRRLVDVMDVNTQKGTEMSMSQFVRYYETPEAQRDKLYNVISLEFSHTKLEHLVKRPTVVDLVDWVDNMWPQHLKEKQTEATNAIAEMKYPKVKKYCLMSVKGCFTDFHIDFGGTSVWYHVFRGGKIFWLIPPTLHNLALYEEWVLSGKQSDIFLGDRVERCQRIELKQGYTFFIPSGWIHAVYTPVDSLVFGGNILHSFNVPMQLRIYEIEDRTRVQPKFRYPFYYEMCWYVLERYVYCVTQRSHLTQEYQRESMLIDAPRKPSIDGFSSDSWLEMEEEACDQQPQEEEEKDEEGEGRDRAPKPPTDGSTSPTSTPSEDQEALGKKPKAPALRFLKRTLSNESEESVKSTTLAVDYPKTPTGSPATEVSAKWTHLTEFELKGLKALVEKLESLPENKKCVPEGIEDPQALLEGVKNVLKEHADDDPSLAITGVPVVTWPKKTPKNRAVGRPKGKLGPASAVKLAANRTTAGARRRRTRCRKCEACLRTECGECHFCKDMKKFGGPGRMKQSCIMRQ
Excerpt: This assay determines the ability of a test compound to inhibit FBXL11, FBXL10, and PHF8 demethylase activity. Baculovirus expressed FBXL11 (GenBank Accession #NM_012308, AA1-1162) was purchased from BPS Bioscience (Cat#50102). Baculovirus expressed FBXL10 (GenBank Accession #NM_032590, AA 1-650) was purchased from BPS Bioscience (Cat #50120). Baculovirus expressed PHF8 (GenBank Accession NP_055922.1) was purchased from Active Motif (Cat#31435).
The ability of test compounds to inhibit the activity of FBXL10 was determined in 384-well plate format under the following reaction conditions: 0.3 nM FBXL10, 30 nM H3K36me2-biotin labeled peptide (Anaspec cat # 64442), 0.2 µM alpha-ketoglutaric acid in assay buffer of 50 mM HEPES, pH7.3, 0.005% Brij35, 0.5 mM TCEP, 0.2 mg/ml BSA, 50 µM sodium L-ascorbate, 5 µM ammonium iron(II) sulfate. Reaction product is determined quantitatively by AlphaScreen detection after the addition of detection reagents anti-H3K36me1 antibody, AlphaScreen® Streptavidin-coated Donor beads, and AlphaScreen® Protein A Acceptor beads in 50 mM HEPES, pH7.3, 10 mM NaCl, 0.005% Brij35, 5 mM EDTA, 2 mg/ml BSA to final 10 µg/ml beads.
The assay reaction was initiated by the following: 3 µl of the mixture of 90 nM H3K36me2-biotin labeled peptide and 0.6 µM alpha-ketoglutaric acid with 3 µl of 11-point serial diluted inhibitor in 3% DMSO are added to each well of 384 well Proxiplate (Perkin Elmer), followed by the addition of 3 µl of 0.9 nM FBXL10 to initiate the reaction. The reaction mixture is incubated at room temperature for 1 hour, and terminated by the addition of 3 µl of appropriate dilution of anti H3K36me1 antibody in 50 mM HEPES, pH7.3, 10 mM NaCl, 0.005% Brij35, 5 mM EDTA, 2 mg/ml BSA. Plates will then incubated at room temperature for 40 minutes, followed by addition of 3 µl of 50 µg/ml AlphaScreen® Streptavidin-coated Donor beads and AlphaScreen® Protein A Acceptor beads in 50 mM HEPES, pH7.3, 10 mM NaCl, 0.005% Brij35, 5 mM EDTA, 2 mg/ml BSA. Plates will then be read by EnVision Multilabel Reader in AlphaScreen mode after minimum 2 hour incubation at room temperature. The AlphaScreen signal for each well is used to determine inhibition constant (IC50).

[3] = Table 3, 0.3 nM FBXL10, H3K36me2-biotin labeled peptide

T1 sequence (O15054 1043-1682 isoform O15054-1): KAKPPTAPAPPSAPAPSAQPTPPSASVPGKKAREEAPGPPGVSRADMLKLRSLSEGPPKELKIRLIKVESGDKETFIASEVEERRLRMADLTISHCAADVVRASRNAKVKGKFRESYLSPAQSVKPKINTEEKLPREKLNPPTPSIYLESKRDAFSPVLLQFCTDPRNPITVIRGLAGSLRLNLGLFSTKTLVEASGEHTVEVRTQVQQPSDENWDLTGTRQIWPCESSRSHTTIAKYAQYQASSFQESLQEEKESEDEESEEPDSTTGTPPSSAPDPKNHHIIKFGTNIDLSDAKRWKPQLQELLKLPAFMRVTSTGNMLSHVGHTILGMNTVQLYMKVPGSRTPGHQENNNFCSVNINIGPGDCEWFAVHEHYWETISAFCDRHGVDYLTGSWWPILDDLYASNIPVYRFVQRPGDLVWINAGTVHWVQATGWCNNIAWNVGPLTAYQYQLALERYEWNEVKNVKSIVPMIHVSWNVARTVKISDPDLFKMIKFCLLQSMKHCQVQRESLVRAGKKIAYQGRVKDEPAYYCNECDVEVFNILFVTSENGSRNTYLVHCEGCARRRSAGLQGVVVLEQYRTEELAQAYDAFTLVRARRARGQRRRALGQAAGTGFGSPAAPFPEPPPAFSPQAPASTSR

SMILES | pIC50 [1] | pIC50 ([2]; Table 5) | pIC50 [2, 3]
COc1ccc2c(c1)CCCC2Cn1cnc(-c2cc(-c3nn[nH]c3C(F)(F)F)ccn2)c1 (centres unmarked) [Example 105, 2-{1-[(6-methoxy-1,2,3,4-tetrahydronaphthalen-1-yl)methyl]-1H-imidazol-4-yl}-4-[5-(trifluoromethyl)-1H-1,2,3-triazol-4-yl]pyridine] | < 5.00 | 6.00 to 7.00 | 
CC(c1ccccc1)n1cnc(-c2cc(-c3nn[nH]c3C(F)(F)F)ccn2)c1 (centres unmarked) [Example 73, 2-[1-(1-phenylethyl)-1H-imidazol-4-yl]-4-[5-(trifluoromethyl)-1H-1,2,3-triazol-4-yl]pyridine] | < 5.00 | ≥ 7.00 | 
O=C(c1ccccc1)N1CCC[C@H](n2cnc(-c3cc(-c4nn[nH]c4C(F)(F)F)ccn3)c2)C1 [Example 90, 2-{1-[(3S)-1-benzoylpiperidin-3-yl]-1H-imidazol-4-yl}-4-[5-(trifluoromethyl)-1H-1,2,3-triazol-4-yl]pyridine] | < 5.00 | ≥ 7.00 | 
FC(F)(F)c1[nH]nnc1-c1ccnc(-c2cn(CC3CCCc4ccccc43)cn2)c1 (centres unmarked) [Example 58, 2-{1-[(1,2,3,4-tetrahydronaphthalen-1-yl)methyl]-1H-imidazol-4-yl}-4-[5-(trifluoromethyl)-1H-1,2,3-triazol-4-yl]pyridine] | < 5.00 | ≥ 7.00 | 
Fc1cc(F)c(CCn2cnc(-c3cc(-c4nn[nH]c4C(F)(F)F)ccn3)c2)cc1F [Example 81, 4-[5-(trifluoromethyl)-1H-1,2,3-triazol-4-yl]-2-{1-[2-(2,4,5-trifluorophenyl)ethyl]-1H-imidazol-4-yl}pyridine] | < 5.00 | ≥ 7.00 | 
FC(F)(F)c1[nH]nnc1-c1ccnc(-c2cn(Cc3ccccc3)cn2)c1 [Example 72, 2-(1-benzyl-1H-imidazol-4-yl)-4-[5-(trifluoromethyl)-1H-1,2,3-triazol-4-yl]pyridine] | < 5.00 | ≥ 7.00 | 
Clc1ccc(Cn2cnc(-c3cc4[nH]nnc4cn3)c2)cc1Cl [Example 48, 1-[(3,4-dichlorophenyl)methyl]-4-{1H-[1,2,3]triazolo[4,5-c]pyridin-6-yl}-1H-imidazole] |  |  | ≥ 7.00
Clc1cccc(-n2cnc(-c3cc4[nH]nnc4cn3)c2)c1 [Example 51, 1-(3-chlorophenyl)-4-{1H-[1,2,3]triazolo[4,5-c]pyridin-6-yl}-1H-imidazole] |  |  | 6.00 to 7.00
c1ccc(Cn2cnc(-c3cc4[nH]nnc4cn3)c2)cc1 [Example 44, 1-benzyl-4-{1H-[1,2,3]triazolo[4,5-c]pyridin-6-yl}-1H-imidazole] |  |  | ≥ 7.00
Clc1cccc(Cn2cnc(-c3cc4[nH]nnc4cn3)c2)c1 [Example 46, 1-[(3-chlorophenyl)methyl]-4-{1H-[1,2,3]triazolo[4,5-c]pyridin-6-yl}-1H-imidazole] |  |  | ≥ 7.00
Fc1ccc2c(c1)C(n1cnc(-c3cc(-c4nn[nH]c4C(F)(F)F)ccn3)c1)CC2 (centres unmarked) [Example 85, 2-[1-(6-fluoro-2,3-dihydro-1H-inden-1-yl)-1H-imidazol-4-yl]-4-[5-(trifluoromethyl)-1H-1,2,3-triazol-4-yl]pyridine] |  | ≥ 7.00 | 
CCc1ccc(CCn2cnc(-c3cc(-c4nn[nH]c4C(F)(F)F)ccn3)c2)cc1 [Example 95, 2-{1-[2-(4-ethylphenyl)ethyl]-1H-imidazol-4-yl}-4-[5-(trifluoromethyl)-1H-1,2,3-triazol-4-yl]pyridine] | < 5.00 |  | 
Fc1ccccc1CCn1cnc(-c2cc(-c3nn[nH]c3C(F)(F)F)ccn2)c1 [Example 84, 2-{1-[2-(2-fluorophenyl)ethyl]-1H-imidazol-4-yl}-4-[5-(trifluoromethyl)-1H-1,2,3-triazol-4-yl]pyridine] |  | ≥ 7.00 | 
COc1cccc2c1CCCC2Cn1cnc(-c2cc(-c3nn[nH]c3C(F)(F)F)ccn2)c1 (centres unmarked) [Example 104, 2-{1-[(5-methoxy-1,2,3,4-tetrahydronaphthalen-1-yl)methyl]-1H-imidazol-4-yl}-4-[5-(trifluoromethyl)-1H-1,2,3-triazol-4-yl]pyridine] | < 5.00 |  | 
Clc1ccccc1-n1cnc(-c2cc3[nH]nnc3cn2)c1 [Example 50, 1-(2-chlorophenyl)-4-{1H-[1,2,3]triazolo[4,5-c]pyridin-6-yl}-1H-imidazole] |  |  | ≥ 7.00
Clc1ccc(Cn2cnc(-c3cc4[nH]nnc4cn3)c2)cc1 [Example 47, 1-[(4-chlorophenyl)methyl]-4-{1H-[1,2,3]triazolo[4,5-c]pyridin-6-yl}-1H-imidazole] |  |  | ≥ 7.00
FC(F)(F)c1ccccc1CCn1cnc(-c2cc(-c3nn[nH]c3C(F)(F)F)ccn2)c1 [Example 60, 4-[5-(trifluoromethyl)-1H-1,2,3-triazol-4-yl]-2-(1-{2-[2-(trifluoromethyl)phenyl]ethyl}-1H-imidazol-4-yl)pyridine] |  | 6.00 to 7.00 | 
Clc1ccccc1Cn1cnc(-c2cc3[nH]nnc3cn2)c1 [Example 45, 1-[(2-chlorophenyl)methyl]-4-{1H-[1,2,3]triazolo[4,5-c]pyridin-6-yl}-1H-imidazole] |  |  | ≥ 7.00
Clc1ccc(-n2cnc(-c3cc4[nH]nnc4cn3)c2)cc1 [Example 49, 1-(4-chlorophenyl)-4-{1H-[1,2,3]triazolo[4,5-c]pyridin-6-yl}-1H-imidazole] |  |  | ≥ 7.00
FC(F)(F)c1[nH]nnc1-c1ccnc(-c2cn(CC3CCc4ccccc43)cn2)c1 (centres unmarked) [Example 83, 2-{1-[(2,3-dihydro-1H-inden-1-yl)methyl]-1H-imidazol-4-yl}-4-[5-(trifluoromethyl)-1H-1,2,3-triazol-4-yl]pyridine] |  | 6.00 to 7.00 | 

Reference: patent EP3436445B1, “HISTONE DEMETHYLASE INHIBITORS” (Celgene Quanticel Research, Inc., priority 2016, dated 2017)
